Data: patent US8334315B2, “Substituted aromatic carboxamide and urea derivatives as vanilloid receptor ligands” (Gruenenthal GmbH, priority 2009, dated 2012)

Assays:
NMRI mice = experiment: Neuropathic pain in mice, Bennett model (chronic constriction injury, cold allodynia) (CClm); format: in vivo
Description: VI. Neuropathic Pain in Mice
Efficacy in […] pain was tested using the Bennett model (chronic constriction injury; Bennett and Xie, 1988, Pain 33: 87-107).
Three loose ligatures are tied around the right ischiadic nerve of Ketavet/Rompun-anaesthetised NMRI mice weighing 16-18 g. The animals develop hypersensitivity of the innervated paw caused by the damaged nerve, which hypersensitivity is quantified, following a recovery phase of one week, over a period of approximately three weeks by means of a cold metal plate (temperature 4° C.) (cold allodynia). The animals are observed on this plate over a period of 2 min and the withdrawal reactions of the damaged paw are counted. Based on the pre-value prior to the application of the substance, the substance's effect over a certain period of time is determined at various points in time (for example 15, 30, 45, or 60 min following application) and the resultant area under the curve (AUC) and/or the inhibition of cold allodynia at the individual measuring points is/are expressed as a percentage effect relative to the vehicle control (AUC) or to the starting value (individual measuring points). The group size is n=10, the significance of an antiallodynic effect (*=p<0.05) is determined with the aid of an analysis of variance with repeated measures and Bonferroni post hoc analysis.
CClm=Bennet model in mice

hVR1 [1] = molecular target: T1, hVR1 (Homo sapiens, UniProt Q8NER1); experiment: Functional test on hVR1 after pH stimulus; format: cell-based, human being; design: key to IC50 (human being) hVR1, pH: agonist / partial agonist / no effect: AG=agonist; pAG=partial agonist; NE=no effect; conditions: for inhibition at 10 µM: read-out: IC50 (human being) hVR1, pH: inhibition (as a percentage)
T1 construct: expressed in transfected cells; host or cells: CHO K1 cells (ECACC), stably transfected
T1 sequence (Q8NER1 whole entry): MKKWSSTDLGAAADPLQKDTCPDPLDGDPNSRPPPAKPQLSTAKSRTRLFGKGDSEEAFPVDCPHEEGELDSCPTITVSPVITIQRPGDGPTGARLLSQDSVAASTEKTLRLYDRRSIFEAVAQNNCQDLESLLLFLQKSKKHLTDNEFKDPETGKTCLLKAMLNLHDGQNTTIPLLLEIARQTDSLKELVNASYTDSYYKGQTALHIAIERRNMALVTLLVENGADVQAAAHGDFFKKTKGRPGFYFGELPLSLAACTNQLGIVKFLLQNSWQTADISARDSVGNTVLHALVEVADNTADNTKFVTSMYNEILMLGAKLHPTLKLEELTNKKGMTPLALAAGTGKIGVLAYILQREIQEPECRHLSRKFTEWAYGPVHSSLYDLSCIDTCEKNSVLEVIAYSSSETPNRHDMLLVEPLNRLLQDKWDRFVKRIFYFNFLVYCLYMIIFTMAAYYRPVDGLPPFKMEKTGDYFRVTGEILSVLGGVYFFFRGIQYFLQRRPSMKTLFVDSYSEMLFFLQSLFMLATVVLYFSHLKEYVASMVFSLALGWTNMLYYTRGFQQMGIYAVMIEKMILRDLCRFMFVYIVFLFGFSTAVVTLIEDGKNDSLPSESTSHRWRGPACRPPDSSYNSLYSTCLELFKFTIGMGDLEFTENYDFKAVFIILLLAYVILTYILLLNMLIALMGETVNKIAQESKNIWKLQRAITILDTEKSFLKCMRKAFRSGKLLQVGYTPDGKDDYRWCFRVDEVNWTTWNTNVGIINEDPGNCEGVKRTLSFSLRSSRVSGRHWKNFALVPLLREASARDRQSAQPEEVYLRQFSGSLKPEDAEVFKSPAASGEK

hVR1 [2] = molecular target: T1, hVR1; experiment: Functional test on human VR1, NADA (N-arachidonoyl dopamine) stimulus; format: cell-based, human being; design: key to Ki (human being) NADA: agonist / partial agonist / no effect: AG=agonist; pAG=partial agonist; NE=no effect; conditions: for Ki: includes values given in brackets after pAG, read-out: Ki (human being) [nM] NADA
Source text: II. Functional Tests Carried Out on the Vanilloid Receptor (VR1)
The agonistic or antagonistic effect of the substances to be tested on the vanilloid receptor 1 (VR1) can also be determined using the following assay. In this assay, the influx of Ca^2+ through the channel is quantified with the aid of a Ca^2+-sensitive dye (type Fluo-4, Molecular Probes Europe BV, Leiden, the Netherlands) in a fluorescent imaging plate reader (FLIPR, Molecular Devices, Sunnyvale, USA).
Chinese hamster ovary cells (CHO K1 cells, European Collection of Cell Cultures (ECACC) United Kingdom) are stably transfected with the VR1 gene. For functional testing, these cells are plated out on poly-D-lysine-coated black 96-well plates having a clear base (BD Biosciences, Heidelberg, Germany) at a density of 25,000 cells/well. The cells are incubated overnight at 37° C. and 5% CO2 in a culture medium (Ham's F12 nutrient mixture, 10% by volume of FCS (foetal calf serum), 18 μg/ml of L-proline). The next day the cells are incubated with Fluo-4 (Fluo-4 2 μM, 0.01% by volume of Pluronic F127, Molecular Probes in HBSS (Hank's buffered saline solution), Gibco Invitrogen GmbH, Karlsruhe, Germany) for 30 minutes at 37° C. Subsequently, the plates are washed three times with HBSS buffer and after further incubation for 15 minutes at RT used for Ca^2+ measurement in a FLIPR assay. The Ca^2+-dependent fluorescence is measured before and after the addition of the substances to be tested (λex wavelength=488 nm, λem=540 nm). Quantification is carried out by measuring the highest fluorescence intensity (FC, fluorescence counts) over time.
The FLIPR protocol consists of 2 substance additions. First the compounds to be tested (10 μM) are pipetted onto the cells and the Ca^2+ influx is compared with the control (capsaicin 10 μM) (% activation based on the Ca^2+ signal after the addition of 10 μM of capsaicin). […]
Desensitising agonists and antagonists led to suppression of the Ca^2+ influx. The % inhibition is calculated compared to the maximum achievable inhibition with 10 μM of capsaicin.
Starting from the percentage displacement caused by different concentrations of the compounds to be tested of general formula I, IC50 inhibitory concentrations which cause a 50-per cent displacement of capsaicin were calculated. Ki values for the test substances were obtained by conversion by means of the Cheng-Prusoff equation (Cheng, Prusoff; Biochem. Pharmacol. 22, 3099-3108, 1973).
NADA=N-arachidonoyl dopamine

hVR1 [3] = molecular target: T1, hVR1; experiment: Functional test on human VR1, 45° C. stimulus; format: cell-based, human being; design: key to IC50 (human being), 45° C.: agonist / partial agonist / no effect: AG=agonist; pAG=partial agonist; NE=no effect

| Compound | inhibition at 10 µM (hVR1 [1]) [%] | Ki (hVR1 [2]) [nM] | IC50 (human being), 45° C.: agonist / partial agonist / no effect (hVR1 [3]) | IC50 (human being) hVR1, pH: agonist / partial agonist / no effect (hVR1 [1]) | Ki (human being) NADA: agonist / partial agonist / no effect (hVR1 [2]) | IC50 (hVR1 [3]; read-out: IC50 (human being) [nM], 45° C.) [nM] | CClm (Bennett model, percentage effect on cold allodynia) (NMRI mice; 1 po) | CClm (Bennett model, percentage effect on cold allodynia) (NMRI mice; 0.1 iv) | CClm (Bennett model, percentage effect on cold allodynia) (NMRI mice; 1 iv) |
| --- | --- | --- | --- | --- | --- | --- | --- | --- | --- |
| CC(C)(C)c1cc(CNC(=O)Nc2ccc3c(c2)CCC3)n(-c2cccc(Cl)c2)n1 [Example 79, 1-((3-tert-butyl-1-(3-chlorophenyl)-1H-pyrazol-5-yl)methyl)-3-(2,3-dihydro-1H-inden-5-yl)urea] | 21 | 12.6 | – | – | – | – | CClm 70% | – | – |
| CC(C(=O)NCc1cc(C(C)(C)C)nn1-c1cccc(Cl)c1)c1ccc2c(c1)OCCO2 (centres unmarked) [Example 13, N-((3-tert-butyl-1-(3-chlorophenyl)-1H-pyrazol-5-yl)methyl)-2-(2,3-dihydrobenzo[b][1,4]dioxin-6-yl)propanamide] | 49 | 4.3 | pAG | – | pAG | – | – | CClm 85% | – |
| CC(C(=O)NCc1cc(C(C)(C)C)nn1-c1cccc(Cl)c1)c1ccc2c(c1)OCO2 (centres unmarked) [Example 11, 2-(benzo[d][1,3]dioxol-5-yl)-N-((3-tert-butyl-1-(3-chlorophenyl)-1H-pyrazol-5-yl)methyl)propanamide] | 36 | – | pAG | – | pAG | – | – | CClm 77% | – |

Second part, led by results:

| inhibition at 10 µM (hVR1 [1]) [%] | Ki (hVR1 [2]) [nM] | IC50 (human being), 45° C.: agonist / partial agonist / no effect (hVR1 [3]) | IC50 (human being) hVR1, pH: agonist / partial agonist / no effect (hVR1 [1]) | Ki (human being) NADA: agonist / partial agonist / no effect (hVR1 [2]) | IC50 (hVR1 [3]; read-out: IC50 (human being) [nM], 45° C.) [nM] | Compound | CClm (Bennett model, percentage effect on cold allodynia) (NMRI mice; 1 po) | CClm (Bennett model, percentage effect on cold allodynia) (NMRI mice; 0.1 iv) | CClm (Bennett model, percentage effect on cold allodynia) (NMRI mice; 1 iv) |
| --- | --- | --- | --- | --- | --- | --- | --- | --- | --- |
| – | – | pAG | pAG | – | – | CC(C(=O)NCc1cc(C(F)(F)F)nn1-c1cccc(Cl)c1)c1ccc2cc(O)ccc2c1 (centres unmarked) [Example 50, N-((1-(3-chlorophenyl)-3-(trifluoromethyl)-1H-pyrazol-5-yl)methyl)-2-(6-hydroxynaphthalen-2-yl)propanamide] | – | CClm 83% | – |
| – | 11.8 | – | – | pAG | – | Cc1nc2ccc(C(C)C(=O)NCc3cc(C(F)(F)F)nn3-c3cccc(Cl)c3)cc2s1 (centres unmarked) [Example 45, N-((1-(3-chlorophenyl)-3-(trifluoromethyl)-1H-pyrazol-5-yl)methyl)-2-(2-methylbenzo[d]thiazol-6-yl)propanamide] | – | – | – |
| – | 0.02 | – | – | – | 357 | CC(C(=O)NCc1cc(C(F)(F)F)nn1-c1cccc(Cl)c1)c1cccc2cnccc12 (centres unmarked) [Example 64, N-((1-(3-chlorophenyl)-3-(trifluoromethyl)-1H-pyrazol-5-yl)methyl)-2-(isoquinolin-5-yl)propanamide] | – | – | CClm 62% |
